Source: ChEMBL document CHEMBL5380800, “Discovery of Small-Molecule Autophagy Inhibitors by Disrupting the Protein-Protein Interactions Involving Autophagy-Related 5” (J Med Chem, 2023)
Calls of active or inactive are those of the source. The rule behind the calls is not given here.

What was measured:
COS-7 [1] = test: Inhibition of autophagy in African green monkey COS-7 cells at 20 uM by flow cytometry analysis relative to control; assay type: functional; settings: Chlorocebus aethiops
[2] = Inhibition of ATG5-TECAIR (unknown origin) protein protein interaction expressed in Escherichia coli BL21 (DE3) by HTRF method; parameters: species or system Homo sapiens
[3] = Inhibition of ATG5-ATG16L1 (unknown origin) protein protein interaction expressed in Escherichia coli BL21 (DE3) by HTRF method; parameters: species or system Homo sapiens
COS-7 [4] = test: Inhibition of autophagy in African green monkey COS-7 cells assessed as effect on LC3 level at upto 40 uM by flow cytometry analysis; assay type: functional, cell-based; settings: Chlorocebus aethiops

SMILES	inhibition at 20 µM (COS-7 [1])	IC50 ([2]; read-out: IC50)	IC50 ([3]; read-out: IC50)	IC50 [2]	IC50 [3]	inhibition (COS-7 [4])
NC(=O)c1ccc(-c2ccc(/C=C3\C=C(c4ccccc4)N(Cc4ccc(C(=O)O)cc4)C3=O)o2)cc1	38.9%	> 33 µM	> 33 µM	–	–	–
COC(=O)c1ccc(N2C(=O)/C(=C/c3ccc(-c4ccc([N+](=O)[O-])cc4)o3)C=C2c2ccccc2)cc1	98.9%	–	–	Not Active	Not Active	–
O=C(O)CN1C(=O)/C(=C/c2ccc(-c3ccc([N+](=O)[O-])cc3)o2)C=C1c1ccccc1	3.29%	31.2 µM	–	–	Not Active	–
CC(=O)c1cccc(-c2ccc(/C=C3\C=C(c4ccccc4)N(Cc4ccc(C(=O)O)cc4)C3=O)o2)c1	–	14.9 µM	27.4 µM	–	–	–
Cc1cc(-c2ccc(/C=C3\C(=O)N(c4ccc(C(=O)O)cc4)N=C3C3CC3)s2)c([N+](=O)[O-])cc1C	–	> 33 µM	22.3 µM	–	–	–
COC(=O)CCN1C(=O)/C(=C/c2ccc(-c3ccc([N+](=O)[O-])cc3)o2)C=C1c1ccccc1	77.1%	–	–	Not Active	Not Active	–
COC(=O)CCCCN1C(=O)/C(=C/c2ccc(-c3ccc([N+](=O)[O-])cc3)o2)C=C1c1ccccc1	16.6%	–	–	Not Active	Not Active	–
O=C(O)CCN1C(=O)/C(=C/c2cc([N+](=O)[O-])ccc2OCc2ccccc2Cl)SC1=S	–	26 µM	16 µM	–	–	–
O=C(O)CCCN1C(=O)/C(=C/c2ccc(-c3ccc([N+](=O)[O-])cc3)o2)C=C1c1ccccc1	5.3%	20.8 µM	–	–	Not Active	–
CC1=NN(c2ccc(C(=O)O)cc2)C(=O)/C1=C\c1ccc(-c2cc(C)c(C)cc2[N+](=O)[O-])s1	–	11.9 µM	11.6 µM	–	–	–
Cn1cnc(N)c2ncnc1-2	–	–	–	–	–	inactive
O=C(O)CCCCN1C(=O)/C(=C/c2ccc(-c3ccc([N+](=O)[O-])cc3)o2)C=C1c1ccccc1	14.6%	19.2 µM	> 33 µM	–	–	–
CCOC(=O)CN1C(=O)/C(=C/c2ccc(-c3ccc([N+](=O)[O-])cc3)o2)C=C1c1ccccc1	79%	–	–	–	–	–
CC1=NN(c2ccc(C(=O)O)cc2)C(=O)C1Cc1ccc(-c2cc(C)c(C)cc2[N+](=O)[O-])o1 (stereo not given)	–	> 33 µM	> 33 µM	–	–	–
CC(=O)Nc1cccc(-c2ccc(/C=C3\C=C(c4ccccc4)N(Cc4ccc(C(=O)O)cc4)C3=O)o2)c1	20%	–	–	Not Active	Not Active	–
CC1=NN(c2ccc(-n3cnnn3)cc2)C(=O)/C1=C\c1ccc(-c2cc(C)c(C)cc2[N+](=O)[O-])o1	–	> 33 µM	> 33 µM	–	–	–
O=C(O)c1ccc(N2C(=O)/C(=C/c3ccc(-c4ccc([N+](=O)[O-])cc4)s3)C=C2c2ccccc2)cc1	90.9%	30 µM	18 µM	–	–	–
CC1=NN(c2ccc(C(=O)O)cc2)C(=O)/C1=C\c1ccc(-c2cccc([N+](=O)[O-])c2)s1	–	23 µM	11.2 µM	–	–	–
COC(=O)c1cccc(CN2C(=O)/C(=C/c3ccc(-c4ccc([N+](=O)[O-])cc4)o3)C=C2c2ccccc2)c1	78.4%	–	–	–	–	–
O=C(O)c1ccc(N2C(=O)/C(=C/c3ccc(-c4ccc5nonc5c4)o3)C=C2c2ccccc2)cc1	94.7%	12 µM	17 µM	–	–	–
O=C(O)c1ccc(N2C(=O)/C(=C/c3ccc(-c4ccc(Cl)cc4)o3)C=C2c2ccccc2)cc1	98.2%	17 µM	> 33 µM	–	–	–
Cc1cc(-c2ccc(CC3C(=O)N(c4ccc(C(=O)O)cc4)N=C3C3CC3)s2)c([N+](=O)[O-])cc1C (stereo not given)	–	> 33 µM	> 33 µM	–	–	–
O=C1/C(=C/c2ccc(-c3ccc([N+](=O)[O-])cc3)o2)C=C(c2ccccc2)N1Cc1ccccc1Br	82.5%	–	–	–	–	–
O=C(O)c1ccc(N2C(=O)/C(=C/c3ccc(-c4cccnc4)s3)C=C2c2ccccc2)cc1	97.3%	> 33 µM	–	–	Not Active	–
CC1=NN(c2ccc(C(=O)O)cc2)C(=O)/C1=C\c1ccc(-c2ccccc2C(F)F)o1	–	> 33 µM	21.4 µM	–	–	–
O=C1/C(=C/c2ccc(-c3ccc([N+](=O)[O-])cc3)o2)C=C(c2ccccc2)N1Cc1ccccc1	78.7%	–	–	Not Active	Not Active	–
O=C(O)c1ccc(N2C(=O)/C(=C/c3ccc(-c4ccc(O)cc4)s3)C=C2c2ccccc2)cc1	98.8%	10 µM	12 µM	–	–	–
O=C(O)c1ccc(N2C(=O)/C(=C/c3ccc(-c4cncnc4)s3)C=C2c2ccccc2)cc1	95.6%	> 11 µM	> 11 µM	–	–	–
N#Cc1ccc(-c2ccc(/C=C3\C=C(c4ccccc4)N(c4ccc(C(=O)O)cc4)C3=O)s2)cc1	93.9%	–	–	Not Active	Not Active	–
